{"source": "paper PMC9254439", "about": "(Virologica Sinica, 2022)", "key": {"[1]": {"molecular_target": "SARS-CoV-2 spike monomer protein (Severe acute respiratory syndrome coronavirus 2, UniProt P0DTC2)", "assay": "biochemical", "format": "binding"}, "[2]": {"molecular_target": "SARS-CoV-2 spike trimer protein (Severe acute respiratory syndrome coronavirus 2, UniProt P0DTC2)", "assay": "biochemical", "format": "binding"}}, "note": "Where no end group is shown, it is not given here."}
{"sequence": "NFWISPKLAFALGGGS [Spep-1]", "values": [{"measurement": "Kd", "setting": "[1]", "value": 2.14, "unit": "nM"}, {"measurement": "Kd", "setting": "[2]", "value": 1.7, "unit": "nM"}]}
